Measurements taken from patent publication US7384966B2, “2-arylbenzothiazole derivatives” (Pharminxo Limited, priority 2004, dated 2008).
“Also recorded” adds a separate entry of the source.

Tests used:
KM 12 = assay: MTT assay, 3 day exposure, KM12; assay type: cell-based, human; conditions: Homo sapiens, KM12, 72 h, KM 12 (colon), MTT, 3 day exposure, triplicate; read-out: GI50 values in cell lines, KM 12
Method: (§1) A range of compounds were evaluated in MTT assays following 3 day exposure against a panel of two human breast cancer cell lines MCF-7 (ER+) and MDA 468 (ER−), and two colon cancer cell lines KM12 and HCC 2998. In general the breast cell lines were more sensitive to the agents and the MDA 468 line the most sensitive of the four (Table 2). The benchmark active compound was 5-fluoro-2-(3,4-dimethoxyphenyl)benzothiazole (1) with GI50 values<0.1 nM against the two breast cell lines. […] The most interesting series of compounds were those combining a 5-fluoro group with two oxygenated substituents in the 3′,4′-positions where minor, seemingly conservative, structural changes were associated with a dramatic variations in activity (when compared to 1). […] In summary, this in vitro screen led to the identification of the fluorinated 2-(3,4-dimethoxyphenyl)benzothiazole structure as a novel antitumor pharmacophore with the 5-fluoro analogue (1) astride a pinnacle of activity.
(§2) The assays/methods used to generate the results referred to herein are well known to those skilled in the art and therefore it has not been necessary to describe them in detail.

MCF-7 [1] = assay: MTT assay, 3 day exposure, MCF-7; assay type: cell-based; conditions: Homo sapiens, MCF7, 72 h, MCF-7 (breast), MTT, 3 day exposure, triplicate; read-out: GI50 values in cell lines, MCF-7
Method: as §1, §2

MCF-7 [2] = conditions: aminophenyl benzothiazole sensitive cells with inducible cyp lal; Hose et al 2003; cited from earlier work
HCC 2998 = assay: MTT assay, 3 day exposure, HCC 2998; assay type: cell-based; conditions: Homo sapiens, HCC 2998, 72 h, HCC 2998 (colon), MTT, 3 day exposure, triplicate; read-out: GI50 values in cell lines, HCC 2998
Method: as §1, §2

[3] = system: NCI in vitro 60 human cancer cell panel; assay: NCI in vitro 60 human cancer cell panel, sulforhodamine B assay; assay type: cell-based; conditions: NCI mean GI50 graphs, FIGS. 1 and 8 to 12
Method: Results from the more extensive NCI in vitro 60 human cancer cell panel^15 corroborated the results (above). The mean GI50 values across the range of compounds (above), including the two series of esters (11-21) are an unremarkable 10-100 μM (data not shown); however, these values disguise significant cell selectivity. […] Full NCI mean GI50 graphs for compounds (1,2,3,4,101,102) are included herein as FIGS. 1 and 8 to 12.
The results shown on FIG. 1 were generated by treating the cells with an active agent for 48 hours, in this case compound 1, before determination of viability by sulforhodamine B assay.

MDA 468 = assay: MTT assay, 3 day exposure, MDA 468; assay type: cell-based; conditions: Homo sapiens, 72 h; MDA 468 (breast), MTT, 3 day exposure, triplicate; read-out: GI50 values in cell lines, MDA 468
Method: as §1, §2

[4] = system: MCF-7, MDA 468, KM12 and HCC 2998; assay: MTT assay, panel of four cell lines, results in words; assay type: cell-based, human; conditions: compared to compound 1
Method: as §1

MCF-7 [5] = assay: Growth inhibition alone or in combination with resveratrol, MCF-7; assay type: cell-based, human; conditions: MCF-7 (cyp lal-inducible), resveratrol 51 μM
Method: The results shown in FIGS. 3a and 3b were generated using MCF-7 (FIG. 3a) and HCC 2998 (FIG. 3b) cells. The said cells were treated with DF 203 or compound 1, alone or in combination with resveratrol (51 μM) an inhibitor of cyp lal activity. It can be seen that in MCF-7 cells (cyp lal-inducible) the activity of DF 203 was abolished.

Row | GI50 (MCF-7 [1]) | GI50 (HCC 2998) | melting point | Structure (SMILES) | GI50 (KM 12) | effect of resveratrol on activity (MCF-7 [2]) | sensitivity of cancer cell panels / antitumour activity in vitro [3] | GI50 (MDA 468) | growth inhibitory potency in words [4] | effect of resveratrol on growth inhibitory activity (MCF-7 [5]) | effect of resveratrol on growth inhibitory activity (MCF-7 [5]; listed as DF 203)
1 | < 0.1 nM | > 100000 nM |  | Cc1cc(-c2nc3cc(F)ccc3s2)ccc1N [Compound 102, 2-(4-amino-3-methylphenyl)-5-fluorobenzothiazole, reference compound] | > 100000 nM | block the activity | non-small cell lung, ovarian, renal and breast cancel cells to be particularly sensitive | < 0.1 nM |  |  | 
2 | 62 nM | 6210 nM | 153 to 155 °C | COc1ccc(-c2nc3ccc(F)cc3s2)cc1OC [Compound 3, 6-Fluoro-2-(3,4-dimethoxyphenyl)benzothiazole] | 24100 nM |  | reduced activity against cancer cells when compared to compound 1; also recorded: demonstrates antitumour activity in vitro; also recorded: potent (but attenuated compared to 1), activity in the colon and NSCL sub-panels | 5 nM | retained nanomolar growth inhibitory potency against one or more of the cell lines |  | 
3 |  |  | 141 to 143 °C | COc1ccc(-c2nc3ccccc3s2)cc1OC [Compound 4, 2-(3,4-Dimethoxyphenyl)benzothiazole] |  |  | no cancer cells to be particularly sensitive; also recorded: attenuated pattern of activity | 530 nM | retained sub-micromolar activity against MDA 468 |  | 
4 | < 0.1 nM | > 100000 nM |  | Cc1cc(-c2nc3ccccc3s2)ccc1N [Compound 101, 2-(4-amino-3-methylphenyl)benzothiazole, reference compound] | > 100000 nM |  | ovarian and breast cancer cells are particularly sensitive | < 0.1 nM |  | block the activity | abolished
